Laboratory results as given in publication PMC5228037, “Discovery and Mechanistic Characterization of Selective Inhibitors of H2S-producing Enzyme: 3-Mercaptopyruvate Sulfurtransferase (3MST) Targeting Active-site Cysteine Persulfide” (Scientific Reports, 2017).

How the values were obtained:
[1] = target: T1, recombinant purified m3MST (Mus musculus, UniProt Q99J99); test: Inhibitory activity toward purified m3MST by gas chromatography; assay type: biochemical; settings: 10 μM compound; 50 μM 3MP, 40 μM DTT; room temperature 3 hr; mean±S.D. n = 2; read-out: Inhibitory activity toward recombinant purified m3MST (H2S production by gas chromatography)
T1 construct: made in house; host or cells: E. coli BL21
T1 sequence (Q99J99 1-297): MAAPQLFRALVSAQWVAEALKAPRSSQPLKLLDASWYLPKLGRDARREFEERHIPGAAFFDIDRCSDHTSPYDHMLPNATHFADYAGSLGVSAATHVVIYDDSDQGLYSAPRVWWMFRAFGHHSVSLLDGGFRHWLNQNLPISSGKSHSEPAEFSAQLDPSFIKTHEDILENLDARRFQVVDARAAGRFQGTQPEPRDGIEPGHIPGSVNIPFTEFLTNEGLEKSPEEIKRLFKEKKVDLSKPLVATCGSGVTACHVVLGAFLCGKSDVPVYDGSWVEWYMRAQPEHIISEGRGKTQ
Procedure: 1 μL of 1 mM compound (final 10 μM) was diluted with 89 μL of 3MST solution (final 3.8 μg/mL) or GST solution (2.2 μg/mL) in 30 mM HEPES buffer (pH 7.4) in a 30 mL collection vial (Iwaki). 10 μL of 3MP and DTT solution (final concentration: 50 μM 3MP and 40 μM DTT) was added to 90 μL of the mixture, then the vial was sealed with parafilm and incubated at room temperature for 3 hr. After addition of 200 μL of 1 M sodium citrate buffer (pH 6.0), the mixture was incubated at 37 °C for at least 10 minutes with shaking on rotary shaker to quench the enzymatic activity and facilitate release of H2S gas from the aqueous phase. A 2 mL sample of head-space gas (total, approximately 29.5 mL) was applied to a gas chromatograph (ODSA-P2, Alpha M.O.S. Japan). The concentrations of H2S were determined from a standard curve obtained with 0 to 4 nmol of Na2S, which is a source of H2S. The protocol is illustrated in Supplementary Fig. 9.
Compound Inhibitory activity
All data are presented as the mean±S.D. (n = 2).
Supplementary Figure S9. (a) Schematic illustration of 3MST inhibitor assay by gas chromatography. (b) Inhibitory activity toward recombinant purified m3MST. Conditions: Mixtures of 10 μM test compound, 3.8 μg/mL 3MST or 2.2 μg/mL GST, 50 μM 3MP, 40 μM DTT, and 1% (v/v) DMSO in 30 mM HEPES buffer (pH 7.4) were incubated at room temperature for 3 hr.
(1 picture or pasted object on this page, not shown here)

[2] = Reactivity test toward H2S (3rd screening, cysteine-activated H2S donor); settings: 40 μM H2S donor, 1 mM L-cysteine, 37 °C 60 min, mean±S.D. n = 4
Procedure: Reactivity of the hit compounds toward H2S was next examined. The final concentration of the compounds was 10 or 30 μM. The assay protocol was as follows. Compounds were diluted with HSip-1 and cysteine-activated H2S donor[22] solution to 20 or 60 μM solution (15.4% DMSO) with a Multi-Drop and a pipette. Next, 2 mM L-cysteine solution (10 μL, final concentration: 1 mM L-cysteine) was dispensed into the plates (total volume was 20 μL, DMSO 7.7%), and the plates were incubated at 37 °C for 1 hr. The fluorescence of HSip-1 was measured (λex = 490 nm, λem = 510 nm) with a microplate reader. Background control wells (i.e., no addition wells instead of addition of the cysteine-activated H2S donor, n = 16) were also prepared for all plates.
Supplementary Table S2. Inhibition (%) of fluorescence increase caused by H2S in the 3rd […]
Compound 10 µM Compound 30 µM Compound 10 µM Compound 30 µM
All data are presented as the mean±S.D. (n = 4). Conditions: Mixtures of 1 μM HSip-1, 10 or 30 μM test compound, 40 μM H2S donor, 1 mM ʟ-cysteine, and 7.7% DMSO (v/v) were incubated at 37 °C for 60 min. The control with DMSO alone instead of DMSO solution of test compound was taken as 0% inhibition, and the sample without H2S donor was taken as 100% inhibition. […]
directly react with H2S: For this assay, we synthesized a reported small-molecular H2S donorS2 that produces H2S by reacting with cysteine. Each compound (10 or 30 μM) was dissolved in a solution (30 mM HEPES buffer (pH 7.4)) containing 1 μM HSip-1, 40 μM H2S donor, 1 mM ʟ-cysteine and 7.7% (v/v) DMSO as a cosolvent, and the solution was incubated at 37 °C for 60 min. Then, the fluorescence intensities were measured to evaluate the amount of H2S in the solution […]

[3] = Reactivity test toward 3MP and DTT (2nd screening, no enzyme); settings: 50 μM 3MP, 40 μM DTT, no 3MST, mean±S.D. n = 4
Procedure: Reactivity of the hit compounds toward 3MP and DTT was examined. The final concentration of the compounds was 10 or 50 μM. The assay protocol was as follows: compounds were diluted with HSip-1 solution to 20 or 100 μM solution (10% DMSO) with a Multi-Drop Combi. Next, 3MP and DTT solution (10 μL, final concentrations: 50 μM 3MP and 40 μM DTT) was dispensed into the plates (total volume was 20 μL, 5% DMSO), and the plates were incubated at room temperature for 3 hr. The fluorescence of HSip-1 was measured (λex = 485 nm, λem = 520 nm) with a microplate reader (PHERAstar PLUS). Background control wells (i.e., no addition wells instead of addition of 3MP and DTT, n = 16) were also prepared for all plates.
Supplementary Note 3. […]
The second screening, which is a non-enzymatic assay, was performed to eliminate false-positive hit compounds such as naphthoquinone that react with the substrates, e.g., 3MP and DTT. Even in […]
μM 3MP and 40 μM DTT. The fluorescence increase in the presence or the absence of 3MP and DTT was regarded as 100% or 0% fluorescence signal, respectively, and we evaluated the ability of each compound (10 μM and 50 μM) to inhibit the fluorescence increase caused by the reaction with 3MP and DTT. In this assay, we selected compounds showing ‒25% ≤ inhibitory activity at both 10 and 50 μM ≤ 50% (545 compounds). Then, we further selected compounds showing more than 60% inhibitory activity in the previous confirmation test among 545 compounds (146 hit compounds) (Supplementary Fig. S7). These compounds were considered not to react with 3MP and DTT, at least in this concentration range. […]

[4] = target: T2, GST-fused m3MST (GST-3MST) (Mus musculus, UniProt Q99J99); test: 3MST inhibitor screening with H2S fluorescent probe HSip-1 (confirmation test, titration test); assay type: biochemical; settings: HSip-1 fluorescence, room temperature 3 hr; for inhibition at 10 µM: 10 μM compound, 50 μM 3MP, 40 μM DTT, mean±S.D. n = 4; for IC50: 0.25, 1, 3, 10, 30 μM compound, 3MP and DTT, read-out: IC50 of 3MST inhibition (titration test)
T2 construct: made in house; host or cells: E. coli BL21
T2 sequence (Q99J99 1-297): T1 sequence (Q99J99 1-297)

Row | inhibition at 10 µM [1] [%] | No Enzyme: inhibition of HSip-1 fluorescence increase caused by 3MP and DTT ([3]; 10 μM compound) [%] | No Enzyme: inhibition of HSip-1 fluorescence increase caused by 3MP and DTT ([3]; 50 μM compound) [%] | inhibition at 10 µM [4] [%] | IC50 [4] [µM] | Compound | Inhibition (%) of fluorescence increase caused by H2S in the 3rd screening ([2]; 10 μM compound) [%] | Inhibition (%) of fluorescence increase caused by H2S in the 3rd screening ([2]; 30 μM compound) [%]
1 | 93.4 ± 0.8 | 7.4±10.6 | -23.6±17.1 | 81.7 ± 2.5 | 6.3 | Cc1sc2nc(SCC(=O)c3ccc(O)cc3O)[nH]c(=O)c2c1C [compound 2] | 6.5±1.8 | 19.6±15.3
2 | 104 ± 2.7 | 10.1±6.2 | 17.2±4.0 | 102.8 ± 0.2 | 1.7 | NC(=O)c1ccsc1NC(=O)CSc1nc2ccccc2c(=O)[nH]1 [compound 1] | 0.2±3.5 | 1.0±2.4
3 | 90.9 ± 0.9 | 11.4±4.9 | 10.5±4.5 | 95.5 ± 3.4 | 5.7 | O=C(O)c1cccc(NS(=O)(=O)c2ccccc2)c1 [compound 5] | 2.5±4.5 | -1.2±16.3
4 | 90.3 ± 12 | 7.4±5.5 | 6.3±4.5 | 102 ± 2.9 | 2.7 | Cc1cc(=O)[nH]c(SCC(=O)c2cccc3ccccc23)n1 [compound 3] | -3.2±5.0 | -3.5±3.9
